Values quoted from earlier work, collected in patent US20240122858A1, “MODIFIED-RELEASE DOSAGE FORMS OF RUXOLITINIB” (SLAYBACK PHARMA LLC, priority 2021, published 2024).

solubility in aqueous buffers (free base) | permeability | aqueous solubility (over a pH range of 1-8) | Structure (SMILES)
sparingly soluble | – | – | N#CC[C@H](C1CCCC1)n1cc(-c2ncnc3[nH]ccc23)cn1 [Ruxolitinib]
– | high permeability | high aqueous solubility | N#CC[C@H](C1CCCC1)n1cc(-c2ncnc3[nH]ccc23)cn1 [Ruxolitinib phosphate, (3R)-3-cyclopentyl-3-[4-(7H-pyrrolo[2,3-d]-pyrimidin-4-yl)-pyrazol-1-yl]-propanenitrile phosphate]
